Measured values: paper PMC12731105, “Design and Synthesis of New Quinoxaline Analogs to Regenerate Sensory Auditory Hair Cells” (Cells, 2025)

What was measured:
Neuro-2A = assay: TACS MTT cell proliferation / metabolic activity assay in Neuro-2A; assay type: cell-based, mouse; conditions: 0.1 to 100 μM
Method: HEI-OC1 cells derived from the mouse OC (kindly provided by Dr. F. Kalinec) were cultured under permissive conditions (33 °C, 10% CO2) as described in [22]. Additionally, we assessed the activity of Qx-derived compounds in the mouse neuroblastoma cell line, Neuro-2A, and the human fibrosarcoma HT-1080 (ATCC, Manassas, VA, USA) following the standard cell culture guidelines provided by the vendor.
In vitro cell proliferation effects of all ten initial compounds (Figure 1A,B) were tested on HEI-OC1, Neuro-2A and HT-1080 cells by TACS® 3-(4,5-dimethylthiazol-2-yl)-2,5-diphenyltetrazolium bromide (MTT) Cell Proliferation Assay (R&D Systems, Minneapolis, MN, USA, 4890-025-K), following the manufacturer’s protocol. Absorbance was measured with SpectraMax® M Series Multi-Mode Microplate Reader with Soft Max Pro 7.2 GxP Software (Molecular Devices, Sunnyvale, CA, USA), and the average OD in control cells was taken as 100% of viability. Upon selecting the most viable compounds (Qx-294 and Qx-301), we proceeded with in vivo experiments. For zebrafish treatment, animals were incubated for varied times with different concentrations (50, 100, 150, 200, 250, and 300 μg/mL) of Qx-294 or Qx-301 diluted in swimming (E3) media or administered via IP injections. Mice treatment followed the same procedures as described in [18]. Following treatment, animals or tissue samples were incubated in Click-it EdU or Click-it Plus TUNEL kits (Thermo Scientific, Waltham, MA, USA), following the manufacturer’s instructions to label proliferating and apoptotic cells, respectively.

[1] = Metabolic stability against S9 fraction; assay type: in vitro ADME; conditions: human, liver S9 fraction, against human S9 fraction (footnote), NADPH, 37 °C; read-out: Metabolic Stability t1/2 (converted)
Method: The metabolic stability of the prodrug was assessed in the mouse liver S9 fraction. Briefly, 5 μg/mL of prodrug was incubated with 1 mg/mL mouse liver S9 fraction supplemented with 1 mg/mL nicotinamide adenine dinucleotide phosphate (NADPH) in Dulbecco’s phosphate-buffered saline at 37 °C. At designated time points (i.e., 0, 0.5, 1, 2 h), 100 μL samples were collected and quenched immediately with 300 μL methanol containing 1 μg/mL internal standard. Samples were vortexed for 30 s and centrifuged at 15,000 rpm for 10 min. Supernatant was assessed by LC/MS.

mouse organ of Corti HCs = assay: M7a immunolabeling and HC counts in the mouse organ of Corti; assay type: in vivo; conditions: mice, single IP 300 mg/kg; for OHC and IHC numbers vs control, 48–72 h: p < 0.05; for Supernumerary M7a-positive cells vs control, 24 h: 24 h post-treatment; for HC numbers in the apex: apical turn
Method: C57BL/6J male and female mice between postnatal day 24 and 30 P-24-30) were randomized into control and experimental groups (9 mice per group per compound), with each experimental group receiving a single intraperitoneal (IP) injection of Qx-294 or Qx-301 at a dose of 300 mg/kg body weight, dissolved in dimethyl sulfoxide (DMSO). Controls consisted of treatment with DMSO alone (vehicle). A total of 90 adult wild-type C57/BL6 mice were used in this study. Based on the analysis, animals were examined at various times following treatment as described below.
Cochlear dissection in mice and immunofluorescence experiments on zebrafish neuromasts and mouse cochleae were performed as previously described. The antibody and labeling kits used in this study included Otoferlin (Developmental Studies Hybridoma Bank, Iowa City, IA, USA, HCS-1), GFP (Novus Biologicals, NB100-1614), and rabbit anti-myosin VIIa (M7a) (Thermo Scientific, Waltham, MA, USA, PA1-936). Species-specific Alexa Fluor-conjugated secondary antibodies were used for detection. Phalloidin conjugated to Alexa 488 (Thermo Scientific, Waltham, MA, USA, O7466) and DAPI were used for labeling stereocilia and the nucleus, respectively.
Cell numbers in mouse cochleae or fish, as well as fish neuromast morphologies, were evaluated in 25 zebrafish per drug and treatment group across three experimental runs. For mouse analyses, 18 cochleae (from 9 mice) per treatment and three experimental repetitions were examined. Images were analyzed at 200X magnification, obtained from different neuromasts and cochlear regions (apex, middle, and base). HCs were quantified in the mouse OC by counting M7a-positive cells, with HC identity further confirmed by phalloidin-labeled stereocilia. Apoptosis and cell proliferation events, on the other hand, were quantified by counting TUNEL- and EdU-positive cells, respectively. Counts were obtained from three randomly selected microscopic fields for each cochlear region, covering at least 1200 μm in total. The number of HCs (IHCs and OHCs) is expressed as units per 200 μm. Cell counting was performed in a double-blind and unbiased manner. A laboratory member conducted the experiments, while another person, who was unaware of the treatment groups to which the cochlea belonged, performed the cell counts. IHCs and OHCs were counted on reconstructed confocal stacks using NIH ImageJ v1.8.0 software. The presence of an HC was defined as an intact, spherical nucleus located in the basal half of an M7a-positive cell. The same person who performed the initial counts recounted a select group of cochleae to determine an intra-rater reliability measure. We used intra-class correlations (ICC) to assess the reliability of the data sets. Reliability statistics were calculated in SPSS v22.0. We used an intra-class correlation coefficient of ≥0.7 to measure strong absolute agreement between the two sets of HC counts being compared. Statistical comparisons between animal groups and treatments were performed using Two-Way ANOVA or Kruskal–Wallis test with post hoc Bonferroni correction for multiple comparisons. Values are presented as ± standard deviation (SD) of the mean. Fluorescence incorporation following treatment with FM1-43 was quantified according to [19] using ImageJ. An unpaired T-test was used to compare the means between treatment groups. p < 0.05 was considered significant. Qx treatments were compared to vehicle-only (control) animals.

Structure (SMILES)	Proliferative state across all tested concentrations (Neuro-2A)	half-life at 5 μg/mL [1]	OHC and IHC numbers vs control, 48–72 h (mouse organ of Corti HCs)	Supernumerary M7a-positive cells vs control, 24 h (mouse organ of Corti HCs)	HC numbers in the apex (mouse organ of Corti HCs)
c1ccc2nc(N3CCCC3)cnc2c1 [Qx-301, 2-(pyrrolidine)-quinoxaline]	modest yet active proliferative state	9.1 ± 8.4 h	significant increases in both OHC and IHC numbers	not statistically significant	consistent, significant increase in apical HCs
c1ccc2nc(N3CCOCC3)cnc2c1 [Qx-294, 2-(morpholine)-quinoxaline]	modest yet active proliferative state	~57 h	significant increases in both OHC and IHC numbers	not statistically significant	variable, non-significant trend towards more HCs
